The values below come from PubChem BioAssay (NCI).

Values joined by “and” are separate entries in the source; they are usually repeats but may differ in a detail not shown here. Equal values may be shown once.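 Compound exposure: 48 hours, 5 concentrations, 96-well plates. GI50 is the concentration that inhibits growth by half. The concentration for full growth arrest is given as TGI.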

Some test systems named below: COLO 205 colon; NCI-H23 lung; HOP-62 NSCLC; OVCAR-3 ovarian; NCI-H522 lung; RXF 393 renal; SNB-75 CNS; TK-10 renal; SNB-19 CNS; HL-60(TB) leukemia; NCI/ADR-RES ovarian.
Common to all, as to assay: DTP human tumour cell line panel, 48 h

Broadly, the TGI is the concentration at which net growth stops. Lower therefore signals greater sensitivity of the cells. As to `Nc1nc(SCc2ccc([N+](=O)[O-])cc2)nc2c1ncn2C1OC(COP(=O)(O)O)C(O)C1O` (stereo not drawn), the TGI with COLO 205 colon, in the assay with NCI-H23 lung, with HOP-62 NSCLC, in the assay with OVCAR-3 ovarian, in the assay on NCI-H522 lung and with RXF 393 renal was more than 100 µM throughout. Further, the TGI with SNB-75 CNS, with TK-10 renal, with SNB-19 CNS and in the assay on HL-60(TB) leukemia was more than 100 µM each time.
With `CC(NC(=O)C(C)NC(=O)C(N)CCP(C)(=O)O)C(=O)O` (stereo not drawn), the TGI in the assay with COLO 205 colon, in the assay on NCI/ADR-RES ovarian, with NCI-H23 lung, with HOP-62 NSCLC, with OVCAR-3 ovarian and in the assay on NCI-H522 lung was more than 100 µM throughout. Also, the TGI in the assay with RXF 393 renal, with SNB-75 CNS, in the assay on SNB-19 CNS and with HL-60(TB) leukemia was more than 100 µM throughout.
As to `C[Si](C)(OCCS(=O)(=O)O)C1(Cc2cccc3ccccc23)S(=O)(=O)OCCOS1(=O)=O`, the TGI with COLO 205 colon is 25.3 µM; with NCI/ADR-RES ovarian, more than 100 µM; in the assay with NCI-H23 lung, 96 µM; in the assay with HOP-62 NSCLC it was 45 µM; in the assay on OVCAR-3 ovarian it was 25.9 µM; in the assay with NCI-H522 lung it was 30.5 µM. Also, the TGI amounted to 55.1 µM in the assay with SNB-75 CNS, 50.9 µM with TK-10 renal, 42.9 µM in the assay with SNB-19 CNS and 51.8 µM in the assay with HL-60(TB) leukemia.
`Cc1ccc(N2Cc3c(ccc4ccccc34)OP2(=O)Oc2ccc(Cl)c(C)c2)cc1` (stereo not drawn): the TGI with COLO 205 colon was more than 100 µM; in the assay with NCI/ADR-RES ovarian, more than 100 µM; in the assay on NCI-H23 lung it was more than 100 µM; with HOP-62 NSCLC it was more than 100 µM; in the assay with OVCAR-3 ovarian it was more than 31.6 µM; with NCI-H522 lung it was more than 100 µM. Also, the TGI in the assay on RXF 393 renal, in the assay on SNB-75 CNS, with SNB-19 CNS and with HL-60(TB) leukemia was more than 100 µM throughout.
Turning to `CC(C)OP(=O)(OC(C)C)/C(I)=N/Nc1ccc([N+](=O)[O-])cc1`, the TGI with COLO 205 colon, with NCI-H23 lung, with HOP-62 NSCLC, in the assay with OVCAR-3 ovarian, in the assay on NCI-H522 lung and in the assay on SNB-75 CNS was more than 100 µM each time. The TGI in the assay with TK-10 renal, with SNB-19 CNS and with HL-60(TB) leukemia was more than 100 µM in each case.
On to `Cc1ccc(N=N/C(=N\NC(=O)c2ccc(C)cc2)c2ccc(N(CCC#N)CCC#N)cc2C)cc1`, for which the TGI in the assay on COLO 205 colon, with NCI/ADR-RES ovarian, in the assay on NCI-H23 lung, with HOP-62 NSCLC, in the assay on OVCAR-3 ovarian and with RXF 393 renal was more than 100 µM throughout. In addition, the TGI with SNB-75 CNS, in the assay on TK-10 renal, in the assay on SNB-19 CNS and with HL-60(TB) leukemia was more than 100 µM throughout.
In general, GI50 refers to the concentration giving 50% growth inhibition. For the compound `N[C@H](C(=O)O)[C@H]1ON=C(Cl)[C@@H]1O`, the GI50 was 3.27 µM in the assay with COLO 205 colon; 15.3 µM in the assay with NCI/ADR-RES ovarian; 5.09 µM with NCI-H23 lung; 16 µM with HOP-62 NSCLC; 0.449 µM with OVCAR-3 ovarian; more than 25.8 µM with NCI-H522 lung. Also, the GI50 in the assay with RXF 393 renal is 7.92 µM; in the assay with SNB-19 CNS it was 40.7 µM; in the assay with HL-60(TB) leukemia, 13.1 µM. In addition, the TGI is more than 550 µM in the assay with COLO 205 colon; more than 469 µM in the assay with NCI/ADR-RES ovarian; more than 550 µM in the assay on NCI-H23 lung; 78.2 µM in the assay on HOP-62 NSCLC; more than 550 µM in the assay on OVCAR-3 ovarian; 62.6 µM in the assay on NCI-H522 lung. For the same compound, the TGI with RXF 393 renal is > 93.8 µM and 232 µM; in the assay on SNB-75 CNS, more than 364 µM; in the assay with SNB-19 CNS, more than 550 µM; in the assay on HL-60(TB) leukemia, 222 µM.
With `COc1ccc(-n2cnnc2-c2nsc3ccccc23)cc1`, the TGI was more than 100 µM with COLO 205 colon; more than 100 µM with NCI-H23 lung; more than 100 µM in the assay on HOP-62 NSCLC; more than 100 µM with OVCAR-3 ovarian; 65.8 µM with RXF 393 renal; 59.2 µM in the assay with SNB-75 CNS. The TGI in the assay on TK-10 renal, with SNB-19 CNS and in the assay on HL-60(TB) leukemia was more than 100 µM throughout.
`CC1=Nc2nc(Cl)cn2C(=O)C1(Cl)Cl`: the TGI in the assay on COLO 205 colon, in the assay on NCI/ADR-RES ovarian, in the assay on NCI-H23 lung, in the assay on HOP-62 NSCLC, in the assay on OVCAR-3 ovarian and with NCI-H522 lung was more than 10 µM each time. The TGI in the assay with RXF 393 renal, with SNB-75 CNS, with TK-10 renal, with SNB-19 CNS and with HL-60(TB) leukemia was more than 10 µM throughout.
